Earlier results, collected in patent publication US5216013A, “Aralkyl-N-terminal cycloalkoxy-C terminal amino hydroxy β-amino acid derivatives” (G. D. Searle & Co., priority 1992, dated 1993).
Square brackets hold non-standard residues; d marks the D form. Peptide text beside a SMILES is read from it. * marks the point of attachment. Sta = CC(C)C[C@H](N)[C@@H](O)CC(=O)O; Isovaleryl = CC(C)CC(=O)*

Assays:
hog renin = conditions: after the injection of hog renin into nephrectomized rats

## CC(C)CC(=O)N[C@H](C(=O)N[C@H](C(=O)N[C@@H](CC(C)C)[C@@H](O)CC(=O)N[C@@H](C)C(=O)N[C@@H](CC(C)C)[C@@H](O)CC(=O)O)C(C)C)C(C)C [pepstatin] (Isovaleryl-VV[Sta]A[Sta]-OH)
Hog renin
  blood pressure: reduce blood pressure in vivo
pepsin
  inhibition of pepsin (in words): inhibitor
Cathepsin D
  inhibition of cathepsin D (in words): inhibitor
renin
  inhibition of renin (in words): inhibitor
